The experiment deals with T1, GAPDH (Rattus norvegicus, UniProt P04797).
T1 construct: endogenous in cells; host or cells: cultured rat neonatal cardiac cells (from Sprague-Dawley rats)
The experiment in a line: GAPDH glycolytic activity in cultured cardiac cells. The format is cell-based. To be noted: cardiac myocytes, 1 nM, 48 hours. How it is done:
FIG. 4A-4D depict a deprenyl derivative compound of the present invention that blocks GAPDH-Siah1 binding. […] FIG. 4B is a graph depicting inhibition of GAPDH-Siah1 binding by the RR compound in vitro. GAPDH was pre-incubated with the RR compound, then GST-Siah1 was added and binding was assessed by GST-agarose pull down followed by western blotting. The graph represents quantification results of the blots from 6 experiments. FIG. 4C is a pair of graphs depicting in vitro MAO activity. FIG. 4D is a bar graph showing glycolytic activity in cultured rat neonatal cardiac cells exposed to 1 nM RR for 48 hours *p<0.05.
HAT activity assay, MEF2 activity assay, MAO activity assay, GAPDH assay: p300 HAT activity was measured using commercially available kit (Biovision), using immunoprecipitation with p300 antibody (Circulation 118, 934-946 (2008)). MEF2 activity was measured using luciferase reporter assay (Panomics). MAO activity assay was measured using commercially available kit (Peninsula Laboratory). GAPDH activity was measured as previously described in (Nat. Cell Biol., 7, 665-674 (2005)). PUMA mRNA expression was determined by real time RT-PCR using SYBR Green fluorescence on a LightCycler instrument (Roche Applied Science). Expression of the gene of interest was divided by the housekeeping gene glyceraldehyde-3-phosphate dehydrogenase (GAPDH) and presented as fold induction of control. […]

T1 sequence (P04797 whole entry): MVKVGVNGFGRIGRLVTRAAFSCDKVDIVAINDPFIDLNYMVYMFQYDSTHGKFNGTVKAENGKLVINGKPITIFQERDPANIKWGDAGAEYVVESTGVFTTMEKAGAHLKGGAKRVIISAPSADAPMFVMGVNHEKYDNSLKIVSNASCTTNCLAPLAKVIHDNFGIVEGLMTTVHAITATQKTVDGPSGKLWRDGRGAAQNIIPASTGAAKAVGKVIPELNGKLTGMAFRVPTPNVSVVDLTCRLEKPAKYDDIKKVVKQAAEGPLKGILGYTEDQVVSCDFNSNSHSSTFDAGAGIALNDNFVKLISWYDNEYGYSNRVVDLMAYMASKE

For `C#CCN1[C@H](C)Cc2ccccc2[C@H]1C` [RR, (1R,3R)-1,3-dimethyl-2-propargyl-1,2,3,4-tetrahydroisoquinoline], the GAPDH glycolytic activity result is “did not show any influence”.
